Source: patent publication USRE40086E1, “Method for treating bacterial infection with novel 7-substituted-9-substituted amino 6-demethyl-6-deoxytetracyclines” (Wyeth Holdings Corporation, priority 1991, dated 2008)

Key:
Format in all cases: cell-based
E. coli PRP1 TetA = test: MIC, agar dilution (Table IA); conditions: unit assumed
[1] = tested on: S. aureus UBMS 88-4 (Sensitive); test: MIC, agar dilution; conditions: for Antibacterial activity (MIC): S. aureus UBMS 88-4, Table IA, unit assumed; for MIC: S. aureus UBMS 88-4 (Sensitive)
[2] = tested on: Ps. acruginosa ATCC 27853; test: MIC, agar dilution (Table IA); conditions: unit assumed
E. coli J3272 TetD = test: MIC, agar dilution (Table IA); conditions: unit assumed
[3] = tested on: S. aureus UBMS 88-5 (tetM); test: MIC, agar dilution; conditions: for Antibacterial activity (MIC): S. aureus UBMS 88-5 TetM, Table IA, unit assumed; for MIC: S. aureus UBMS 88-5 (tetM)
[4] = tested on: E. coli UBMS 89-2 (Sensitive); test: MIC, agar dilution; conditions: for Antibacterial activity (MIC): E. coli UBMS 89-2 Tet Sens., Table IA, unit assumed; for MIC: E. coli UBMS 89-2 (Sensitive)
E. coli ATCC 25922 = test: MIC, agar dilution; conditions: E. coli ATCC 25922; for Antibacterial activity (MIC): Table IA, unit assumed
S. aureus NEMC 8769/89-4 = test: MIC, agar dilution (Table IA); conditions: unit assumed
[5] = tested on: S. aureus ATCC 29213 (Sensitive); test: MIC, agar dilution; conditions: for Antibacterial activity (MIC): S. aureus ATCC 29213, Table IA, unit assumed; for MIC: S. aureus ATCC 29213 (Sensitive)
E. coli J3272 Tet sens. = test: MIC, agar dilution (Table IA); conditions: unit assumed
[6] = tested on: X. maltophilia NEMC 87210; test: MIC, agar dilution (Table IA); conditions: unit assumed
S. mariescens FDOR 8733 = test: MIC, agar dilution (Table IA); conditions: unit assumed
E. coli J2175 = test: MIC, agar dilution (Table IA); conditions: unit assumed
S. aureus ROSE (MP) = test: MIC, agar dilution (Table IA); conditions: unit assumed
[7] = tested on: S. aureus IVES 1983 (meth. resistant); test: MIC, agar dilution; conditions: for Antibacterial activity (MIC): S. aureus IVES 1983, Table IA, unit assumed; for MIC: S. aureus IVES 1983 (meth. resistant)
E. coli UBMS 89-1 (tetM) = test: MIC, agar dilution; conditions: for Antibacterial activity (MIC): E. coli UBMS 89-1 TetM, Table IA, unit assumed; for MIC: E. coli UBMS 89-1 (tetM)
[8] = tested on: S. aureus Smith (Sensitive); test: MIC, agar dilution; conditions: for Antibacterial activity (MIC): S. aureus SMITH (MP), Table IA, unit assumed; for MIC: S. aureus Smith (Sensitive)
[9] = tested on: S. aureus UBMS 88-7 (tetK); test: MIC, agar dilution; conditions: for Antibacterial activity (MIC): S. aureus UBMS 88-7 TetK, Table IA, unit assumed; for MIC: S. aureus UBMS 88-7 (tetK)
[10] = tested on: S. aureus UBMS 90-3 (Sensitive); test: MIC, agar dilution; conditions: for Antibacterial activity (MIC): S. aureus UBMS 90-3, Table IA, unit assumed; for MIC: S. aureus UBMS 90-3 (Sensitive)
[11] = tested on: S. aureus UBMS 90-2 (tetM); test: MIC, agar dilution; conditions: for Antibacterial activity (MIC): S. aureus UBMS 90-2 TetM, Table IA, unit assumed; for MIC: S. aureus UBMS 90-2 (tetM)
[12] = tested on: S. haemolyticus AVAH 88-3; test: MIC, agar dilution; conditions: for Antibacterial activity (MIC): S. hemolyticus AVHAH 88-3, Table IA, unit assumed; for MIC: S. haemolyticus AVAH 88-3
E. coli UBMS 90-5 = test: MIC, agar dilution (Table IA); conditions: unit assumed
E. coli #311 (MP) = test: MIC, agar dilution (Table IA); conditions: unit assumed
E. coli MC4100 TetB = test: MIC, agar dilution (Table IA); conditions: unit assumed
E. faecalis ATCC 29212 = test: MIC, agar dilution; conditions: E. faecalis ATCC 29212; for Antibacterial activity (MIC): Table IA, unit assumed
[13] = tested on: S. aureus IVES 2943 (meth. resistant); test: MIC, agar dilution; conditions: for Antibacterial activity (MIC): S. aureus IVES 2943, Table IA, unit assumed; for MIC: S. aureus IVES 2943 (meth. resistant)
E. coli J3272 TetC = test: MIC, agar dilution (Table IA); conditions: unit assumed
[14] = tested on: S. aureus UBMS 90-1 (tetM); test: MIC, agar dilution; conditions: for Antibacterial activity (MIC): S. aureus UBMS 90-1 TetM, Table IA, unit assumed; for MIC: S. aureus UBMS 90-1 (tetM)
E. faecalis 12201 = test: MIC, agar dilution; conditions: for Antibacterial activity (MIC): Enterococcus 12201, Table IA, unit assumed; for MIC: E. faecalis 12201
E. coli BAJ9003 = test: MIC, agar dilution (Table IA); conditions: unit assumed
E. coli UBMS 90-4 (tetM) = test: MIC, agar dilution; conditions: E. coli UBMS 90-4 TetM; Table IA; unit assumed
E. coli UBMS 88-1 (tetB) = test: MIC, agar dilution; conditions: for Antibacterial activity (MIC): E. coli UBMS 88-1 TetB, Table IA, unit assumed; for MIC: E. coli UBMS 88-1 (tetB)
[15] = tested on: E. coli UBMS 88-2 (Sensitive); test: MIC, agar dilution; conditions: E. coli UBMS 88-2 (Sensitive)

Br.CC(Br)C(=O)Nc1cc(N(C)C)c2c(c1O)C(=O)C1=C(O)C3(O)C(=O)C(C(N)=O)=C(O)C(N(C)C)C3CC1C2 (stereo not shown) [JJJ]
16 µg/mL: Antibacterial activity (MIC) [6] | Antibacterial activity (MIC) [9] | Antibacterial activity (MIC) [12] | Antibacterial activity (MIC) (E. faecalis ATCC 29212) | Antibacterial activity (MIC) [14] | Antibacterial activity (MIC) (E. faecalis 12201)
32 µg/mL: Antibacterial activity (MIC) [7] | Antibacterial activity (MIC) (E. coli UBMS 89-1 (tetM)) | Antibacterial activity (MIC) [13]
> 32 µg/mL: Antibacterial activity (MIC) (E. coli PRP1 TetA) | Antibacterial activity (MIC) [2] | Antibacterial activity (MIC) (E. coli J3272 TetD) | Antibacterial activity (MIC) [4] | Antibacterial activity (MIC) (E. coli ATCC 25922) | Antibacterial activity (MIC) (E. coli J3272 Tet sens.) | Antibacterial activity (MIC) (S. mariescens FDOR 8733) | Antibacterial activity (MIC) (E. coli J2175) | Antibacterial activity (MIC) (S. aureus ROSE (MP)) | Antibacterial activity (MIC) (E. coli UBMS 90-5) | Antibacterial activity (MIC) (E. coli #311 (MP)) | Antibacterial activity (MIC) (E. coli MC4100 TetB) | Antibacterial activity (MIC) (E. coli J3272 TetC) | Antibacterial activity (MIC) (E. coli UBMS 90-4 (tetM)) | Antibacterial activity (MIC) (E. coli UBMS 88-1 (tetB))
8 µg/mL: Antibacterial activity (MIC) [1] | Antibacterial activity (MIC) [3] | Antibacterial activity (MIC) [11]
4 µg/mL: Antibacterial activity (MIC) (S. aureus NEMC 8769/89-4) | Antibacterial activity (MIC) [5] | Antibacterial activity (MIC) [8] | Antibacterial activity (MIC) (E. coli BAJ9003)
2 µg/mL: Antibacterial activity (MIC) [10]

CN(C)c1cc(NC(=O)CBr)c(O)c2c1CC1CC3[C@H](N(C)C)C(O)=C(C(N)=O)C(=O)[C@@]3(O)C(O)=C1C2=O.Cl.Cl (stereo partly drawn) [III, [4S-(4alpha,12aalpha)]-9-[(Bromoacetyl)amino)-4,7-bis(dimethylamino)-1,4,4a,5,5a,6,11,12a-octahydro-3,10,12,12a-tetrahydroxy-1,11-dioxo-2-naphthacenecarboxamide dihydrochloride]
2 µg/mL: Antibacterial activity (MIC) [9] | Antibacterial activity (MIC) [12]
> 32 µg/mL: Antibacterial activity (MIC) (E. coli PRP1 TetA) | Antibacterial activity (MIC) [2] | Antibacterial activity (MIC) (S. mariescens FDOR 8733) | Antibacterial activity (MIC) (E. coli MC4100 TetB) | Antibacterial activity (MIC) (E. coli J3272 TetC) | Antibacterial activity (MIC) (E. coli UBMS 88-1 (tetB))
1 µg/mL: Antibacterial activity (MIC) [3] | Antibacterial activity (MIC) [14] | Antibacterial activity (MIC) (E. faecalis 12201)
0.12 µg/mL: Antibacterial activity (MIC) (S. aureus NEMC 8769/89-4)
16 µg/mL: Antibacterial activity (MIC) (E. coli ATCC 25922) | Antibacterial activity (MIC) (E. coli J3272 Tet sens.) | Antibacterial activity (MIC) (E. coli UBMS 90-5)
0.25 µg/mL: Antibacterial activity (MIC) (E. coli BAJ9003)
4 µg/mL: Antibacterial activity (MIC) [6] | Antibacterial activity (MIC) [7] | Antibacterial activity (MIC) (E. coli UBMS 89-1 (tetM)) | Antibacterial activity (MIC) [13]
0.5 µg/mL: Antibacterial activity (MIC) [1] | Antibacterial activity (MIC) [5] | Antibacterial activity (MIC) [8] | Antibacterial activity (MIC) [10] | Antibacterial activity (MIC) [11] | Antibacterial activity (MIC) (E. faecalis ATCC 29212)
32 µg/mL: Antibacterial activity (MIC) (E. coli J3272 TetD) | Antibacterial activity (MIC) [4] | Antibacterial activity (MIC) (E. coli J2175)
8 µg/mL: Antibacterial activity (MIC) (S. aureus ROSE (MP)) | Antibacterial activity (MIC) (E. coli #311 (MP))

CN(C)c1cc(NC(=O)CN)c(O)c2c1CC1CC3C(N(C)C)C(O)=C(C(N)=O)C(=O)C3(O)C(O)=C1C2=O.O=C(O)C(F)(F)F (stereo not shown) [M, 9-[(Aminoacetyl)amino]-7-(dimethylamino)-6-demethyl-6-deoxytetracycline mono(trifluoroacetate)]
0.5 µg/mL: MIC [5] | MIC [10] | MIC [11]
1 µg/mL: MIC [1] | MIC [3] | MIC [8] | MIC [12]
2 µg/mL: MIC [4] | MIC (E. coli ATCC 25922) | MIC [15] | MIC (E. coli UBMS 89-1 (tetM)) | MIC [14] | MIC (E. coli UBMS 88-1 (tetB))
>32 µg/mL: MIC [7] | MIC [9] | MIC [13]
0.25 µg/mL: MIC (E. faecalis ATCC 29212) | MIC (E. faecalis 12201)

CN(C)c1cc(NC(=O)CN2CCOCC2)c(O)c2c1CC1CC3[C@H](N(C)C)C(O)=C(C(N)=O)C(=O)[C@@]3(O)C(O)=C1C2=O.Cl.Cl (stereo partly drawn) [NN, [7S-(7alpha,10aalpha)]-N-[9-(Aminocarbonyl)-4,7-bis(dimethylamino)-5,5a,6,6a,7,10,10a,12-octahydro-1,8,10a,11-tetrahydroxy-10,12-dioxo-2-naphthacenyl)-4-morpholineacetamide dihydrochloride]
32 µg/mL: Antibacterial activity (MIC) (E. coli J3272 TetD) | Antibacterial activity (MIC) [6] | Antibacterial activity (MIC) (E. coli UBMS 89-1 (tetM)) | Antibacterial activity (MIC) [9] | Antibacterial activity (MIC) [12]
0.5 µg/mL: Antibacterial activity (MIC) (S. aureus NEMC 8769/89-4) | Antibacterial activity (MIC) (E. coli BAJ9003)
> 32 µg/mL: Antibacterial activity (MIC) (E. coli PRP1 TetA) | Antibacterial activity (MIC) [2] | Antibacterial activity (MIC) [4] | Antibacterial activity (MIC) (E. coli ATCC 25922) | Antibacterial activity (MIC) (E. coli J3272 Tet sens.) | Antibacterial activity (MIC) (S. mariescens FDOR 8733) | Antibacterial activity (MIC) (E. coli J2175) | Antibacterial activity (MIC) (S. aureus ROSE (MP)) | Antibacterial activity (MIC) [7] | Antibacterial activity (MIC) (E. coli UBMS 90-5) | Antibacterial activity (MIC) (E. coli #311 (MP)) | Antibacterial activity (MIC) (E. coli MC4100 TetB) | Antibacterial activity (MIC) [13] | Antibacterial activity (MIC) (E. coli J3272 TetC) | Antibacterial activity (MIC) (E. coli UBMS 88-1 (tetB))
4 µg/mL: Antibacterial activity (MIC) [3] | Antibacterial activity (MIC) [14]
2 µg/mL: Antibacterial activity (MIC) [1] | Antibacterial activity (MIC) [5] | Antibacterial activity (MIC) [8] | Antibacterial activity (MIC) [10] | Antibacterial activity (MIC) [11] | Antibacterial activity (MIC) (E. faecalis ATCC 29212) | Antibacterial activity (MIC) (E. faecalis 12201)

CN(C)c1cc(NC(=O)c2ccc([N+](=O)[O-])cc2)c(O)c2c1CC1CC3C(N(C)C)C(O)=C(C(N)=O)C(=O)C3(O)C(O)=C1C2=O (stereo not shown) [V, 7-(Dimethylamino)-9-[(4-nitrobenzoyl)amino]-6-demethyl-6-deoxytetracycline]
4 µg/mL: MIC [9] | MIC [12] | MIC (E. faecalis ATCC 29212) | MIC [13] | MIC (E. faecalis 12201)
1 µg/mL: MIC [11]
>32 µg/mL: MIC [4] | MIC (E. coli ATCC 25922) | MIC [15] | MIC (E. coli UBMS 89-1 (tetM)) | MIC (E. coli UBMS 88-1 (tetB))
0.25 µg/mL: MIC [5]
8 µg/mL: MIC [7]
2 µg/mL: MIC [1] | MIC [3] | MIC [14]
0.5 µg/mL: MIC [8] | MIC [10]
